In brackets after ≈: the same amount, converted by molar mass.
Legend:
Format in all cases: functional
Bacillus subtilis = assay: Antimicrobial activity against Bacillus subtilis after 48 hrs by paper disk assay
Staphylococcus aureus = assay: Antimicrobial activity against Staphylococcus aureus after 48 hrs by paper disk assay
Micrococcus luteus = assay: Antimicrobial activity against Sarcina lutea after 48 hrs by paper disk assay
Helminthosporium = assay: Antimicrobial activity against Helminthosporium sativum after 96 hrs by paper disk assay

Question: For `COc1c(C)c(OC(=O)c2c(C)cc(O)cc2O)c(C)c(C(=O)Oc2cc(O)c(C(=O)O)c(C)c2C)c1C` [COLLETOTRIC ACID], which MIC (Bacillus subtilis) is on record?
Answer: Its MIC is 25 µg/mL (≈ 47.7 µM).

Question: What about the MIC (Staphylococcus aureus) of the same molecule?
Answer: The MIC was 50 µg/mL (≈ 95.3 µM).

Question: And the MIC (Micrococcus luteus)?
Answer: Its MIC is 50 µg/mL (≈ 95.3 µM).

Question: What about the MIC (Helminthosporium) of the same molecule?
Answer: Its MIC is 50 µg/mL (≈ 95.3 µM).

Question: With `CC(C)(C)C(=O)C(Oc1ccc(Cl)cc1)n1cncn1` (configuration not stated) [TRIADIMEFON] as the molecule, how does the MIC (Helminthosporium) read?
Answer: Its MIC is 20 µg/mL (≈ 68.1 µM).

Question: Which results are given for `CC1(C)S[C@@H]2[C@H](NC(=O)[C@H](N)c3ccccc3)C(=O)N2[C@H]1C(=O)O` [AMPICILLIN]?
Answer: MIC (Bacillus subtilis): 0.05 µg/mL (≈ 0.143 µM); MIC (Micrococcus luteus): 0.01 µg/mL (≈ 0.0286 µM)

From ChEMBL document CHEMBL1155626, “Metabolites of Colletotrichum gloeosporioides, an endophytic fungus in Artemisia mongolica” (2000)
